Data published in patent US4281009A, “Hydantoin derivatives” (Nippon Zoki Pharmaceutical Co., Ltd., priority 1978, dated 1981).

How the values were obtained:
[1] = test system: isolated duodenum; test: Recovery of acetylcholine sensitivity of isolated duodenum of SART stress mice (Magnus method); format: in vivo, mice (dd-strain male); settings: 6th day, Ach 10^-7 g/ml, Average ± S.E.
Source text: (§1) SART stress animals used in the tests described below were raised according to a method of Kita, et al. [Folia Pharmacol. Japan.: 71, 195-210 (1975)].
3. Effect of recovering acetylcholine (Ach) sensitivity of isolated intestinal tract:
Groups each comprising at least 10 dd-strain male mice were used. The compounds of the present invention or other comparative drugs were given intraperitoneally once a day during the stress-causing operation. On the 6th day, Ach (10^-7 g/ml.) sensitivity of isolated duodenum was examined using the Magnus method.

[2] = test system: ddY-strain male mice; test: Effect of prolongation of sleeping time (hexobarbital); format: in vivo; settings: Mus musculus, ip; for change in vivo at 100 mg/kg: 100 mg/kg intraperitoneal; for change in vivo at 300 mg/kg: 300 mg/kg intraperitoneal
Procedure: 7. Effect of prolongation of sleeping time:
Groups of mice each comprising 10 ddY-strain male mice were used. Sodium salt of hexobarbital was given intraperitoneally. Thereafter, the period of time in which righting reflex disappeared was measured. The effect was evaluated on the basis of prolongation of time of disappearance of righting reflex by the intraperitoneal administration of the compounds of the present invention as compared with control mice.

[3] = test system: normal mice and SART stress mice; test: Analgesic effect, tail pressure method (Randall-Selitto's device); format: in vivo, mice (ddY-strain male); settings: 60 minutes; for change in vivo at 100 mg/kg: Mus musculus, ip, 1 h, intraperitoneal 100 mg/kg; for Analgesic effect: intraperitoneal 50 mg/kg
Procedure: 5.1 Tail pressure method:
Randall-Selitto's device for determining analgesic effect by pressure stimulation was used. […]. The compounds of the present invention or other comparative drugs were given thereto and analgesic effect was determined. The effect was judged by measuring pressure applied 60 minutes after the intraperitoneal administration of the compounds of the present invention. The pressure thus measured was divided by a pressure before the administration. The value thus obtained was compared with that of a control group (to which 10 ml./Kg of 0.5% sodium salt of carboxymethylcellulose or 0.5% Tween 80 was given). When the compounds of the present invention were given perorally and other comparative drugs were given, an average of the pressure at 30, 60, 90 and 120 minutes after the administration was employed for evaluating the effect.

[4] = Acute toxicity test (LD50, Litchfield-Wilcoxon), mice; settings: mouse, in vivo, ip, intraperitoneal
Procedure: (§2) Toxicity tests were carried out by intraperitoneal administration of the compound of the present invention to groups each comprising 10 ICR-strain mice and SD-strain rats. LD50 was calculated by the Litchfield-Wilcoxon method based on the number of death 72 hours after the administration.

[5] = test system: SART stress mice; test: Inhibitory effects on increase of heart rate and elongation of QRS-time in SART stress mice; format: in vivo, mice (dd-strain male); settings: 100 mg/kg/day, 9th day, Average ± S.D.
Procedure: as §1
2. Inhibitory effects on increase of heart rate and elongation of QRS-time in stress animals:
Groups of mice each comprising 11 or 12 dd-strain male mice were divided into three groups in the same manner as above and heart rate and QRS-time were determined on the 9th day after initiation of the tests.

[6] = test system: normal mice and SART stress mice; test: Analgesic effect, D'Amour-Smith method; format: in vivo, mice (ddY-strain male); settings: Mus musculus, ip, intraperitoneal 100 mg/kg
Procedure: 5.3. D'Amour-Smith method:
Groups each comprising 10 ddY-strain male normal mice and SART stress mice to which SART stress had been applied for 4 days were used. The root of the tail of the mouse to which black ink was applied was irradiated with infrared rays for up to 15 seconds. Time required till escape response was observed was measured. The effect was shown by the ratio of the mice in which an average value of the response time at 30, 60, 90 and 120 minutes after the administration of the compounds of the present invention or other comparative drugs was prolonged to at least 2 times as long as the time before the administration.

[7] = test system: normal mice and SART stress mice; test: Analgesic effect, acetic acid writhing method; format: in vivo; settings: Mus musculus, sc, 100 mg/Kg subcutaneously
Procedure: 5.2. Acetic acid writhing method: 0.1 ml./10 g of isotonic sodium chloride solution containing 0.7% acetic acid was given intraperitoneally to groups of mice each comprising 5 normal mice and 5 SART stress mice to which SART stress had been applied for 8 days. Writhing syndromes number appeared for 15 minutes after the administration was measured. The effect was evaluated by giving 100 mg/Kg of the compounds of the present invention or DPH subcutaneously and comparing the writhing syndromes number of the mice with that of control mice.

[8] = Acute toxicity test (LD50, Litchfield-Wilcoxon), rats; settings: rat, in vivo, ip, intraperitoneal
Procedure: as §2

[9] = test system: Wistar-strain male rats; test: Antiulcerogenic effect on Shay's ulcer (operative ulcer); format: in vivo; settings: 150 mg/kg intraperitoneal, 10 times
Procedure: 6.2. Antiulcerogenic effect on Shay's ulcer (operative ulcer):
Tests were carried out by using groups of rats each comprising 5-10 Wistar-strain male rats according to Shay method [Shay Harry; Gastroenterology,; 5, 43 (1945)]. Ulcers in the anterior stomach were classified on the following basis:
2. 1-5 small ulcers (diameter of less than 3 mm)
3. 6 or more small ulcers or one big ulcer (diameter of more than 3 mm)
4. two or more big ulcers

[10] = test system: dd-strain male mice; test: Antiulcerogenic effect on Takagi's restraint-plus-water-immersing ulcer; format: in vivo; settings: Mus musculus, ip; 150 mg/kg intraperitoneal
Procedure: 6.1 Antiulcerogenic effect on Takagi's restraint-plus-water-immersing ulcer: Groups each comprising 8-26 dd-strain male mice were used. The tests were carried out according to a method of Takagi, et al. [Chem. Pharm. Bull.; 12, 465 (1964)]. Sum of length of diseased parts in the glandular stomach was measured and it was compared with that of control group. The compounds of the present invention or DPH was given intraperitoneally immediately before the restraint and immersion in water.

[11] = test system: spontaneously hypertensive rats (SHR); test: Antihypertensive effect in spontaneously hypertensive rats; format: in vivo; settings: 60 minutes
Procedure: 8. Antihypertensive effect: Groups of rats each comprising 6-9 spontaneously hypertensive rats (SHR) were used. The compounds of the present invention or DPH was given intraperitoneally. The rate of antihypertension 60 minutes after the administration was determined.

With `NC(=O)C1(N2CCCCC2)CCN(CCCN2c3ccccc3CCc3ccccc32)CC1` [Carpipramine] the “Ach-induced contraction of the isolated deodedum” value (from here on “Ach-induced contraction”) ([1]; 5 mg/kg/day intraperitoneal) was 52 ± 6% and the “Ach-induced contraction” value ([1]; 10 mg/kg/day intraperitoneal) was 110 ± 26%.
With `CN(C)CCCN1c2ccccc2Sc2ccc(Cl)cc21` [Chlorpromazine] the “Ach-induced contraction” value ([1]; 0.1 mg/kg/day intraperitoneal) was 45 ± 12% and the “Ach-induced contraction” value ([1]; 0.5 mg/kg/day intraperitoneal) was 81 ± 17%.
Compound `COc1ccc(C2(c3ccc(OC)c(C)c3)NC(=O)NC2=O)cc1` (stereo not drawn) [Compound 3, 5-(4-methoxy-3-methylphenyl)-5-(4-methoxyphenyl)hydantoin] has a change in vivo at 100 mg/kg [2] of 76.6%, a change in vivo at 300 mg/kg [2] of 93.9% and a change in vivo at 100 mg/kg ([3]; SART stress mice) of 91%. It also gave a change in vivo at 100 mg/kg ([3]; normal mice) of 47.4%, an Analgesic effect ([3]; SART stress mice) of 60.3% and an Analgesic effect ([3]; normal mice) of 44.3%. For the same compound, the LD50 at 72 h ([4]; female) was greater than 5000 mg/kg, the LD50 at 72 h ([4]; male) was greater than 5000 mg/kg and the Heart rate [5] was 710 ± 83 min⁻¹. For the same compound, the QRS-time [5] was 13.1 ± 1.7 1/1000 sec, the responders at 100 mg/kg ([6]; SART stress mice) was 40% and the responders at 100 mg/kg ([6]; normal mice) was 30%. For the same compound, the inhibition in vivo at 100 mg/kg ([7]; SART stress mice) was 22%, the inhibition in vivo at 100 mg/kg ([7]; normal mice) was 2% and the LD50 at 72 h ([8]; female) was greater than 5000 mg/kg. The LD50 at 72 h ([8]; male) was greater than 5000 mg/kg.
With `O=C1NC(=O)C(c2ccccc2)(c2ccc(F)cc2)N1` (stereo not drawn) [Compound 5, 5-(4-Fluorophenyl)-5-phenylhydantoin] the change in vivo at 100 mg/kg [2] was 31%, the change in vivo at 300 mg/kg [2] was 38.1% and the “Antiulcerogenic effect on Shay's ulcer (operative ulcer)” value [9] was 20.7%. For the same compound, the inhibition in vivo at 150 mg/kg [10] was 22.8%, the change in vivo at 100 mg/kg ([3]; SART stress mice) was 95% and the change in vivo at 100 mg/kg ([3]; normal mice) was 19.8%. It also gave an LD50 at 72 h ([4]; female) of 810 mg/kg, an LD50 at 72 h ([4]; male) of 840 mg/kg and a responders at 100 mg/kg ([6]; SART stress mice) of 40%. For the same compound, the responders at 100 mg/kg ([6]; normal mice) was 10%, the LD50 at 72 h ([8]; female) was 1100 mg/kg and the LD50 at 72 h ([8]; male) was 1180 mg/kg.
Work on `Cc1cc(C2(c3ccc(O)cc3)NC(=O)NC2=O)ccc1O` (stereo not drawn) [Compound 30, 5-(4-Hydroxy-3-methylphenyl)-5-(4-hydroxyphenyl)hydantoin] yielded a change in vivo at 100 mg/kg [2] of 26.6%, a change in vivo at 300 mg/kg [2] of 97.4% and a change in vivo at 100 mg/kg ([3]; SART stress mice) of 97.5%. It also gave a change in vivo at 100 mg/kg ([3]; normal mice) of 59.8%, an Analgesic effect ([3]; SART stress mice) of 43.6% and an Analgesic effect ([3]; normal mice) of 12.4%. For the same compound, the LD50 at 72 h ([4]; female) was greater than 5000 mg/kg, the LD50 at 72 h ([4]; male) was greater than 5000 mg/kg and the Heart rate [5] was 731 ± 71 min⁻¹. The QRS-time [5] was 13.4 ± 1.1 1/1000 sec, the responders at 100 mg/kg ([6]; SART stress mice) was 30% and the responders at 100 mg/kg ([6]; normal mice) was 20%. The inhibition in vivo at 100 mg/kg ([7]; SART stress mice) was 25.2%, the inhibition in vivo at 100 mg/kg ([7]; normal mice) was 3.9% and the Rate of antihypertension ([11]; 150 mg/Kg intraperitoneal) was 10.9%. The Rate of antihypertension ([11]; 300 mg/Kg intraperitoneal) was 28.6%, the LD50 at 72 h ([8]; female) was greater than 5000 mg/kg and the LD50 at 72 h ([8]; male) was greater than 5000 mg/kg.
With `CN1C(=O)CN=C(c2ccccc2)c2cc(Cl)ccc21` [Diazepam] the “Ach-induced contraction” value ([1]; 5 mg/kg/day intraperitoneal) was 25 ± 6%.
In the case of `CN(C)CCOC(c1ccccc1)c1ccccc1` [Diphenhydramine], the “Ach-induced contraction” value ([1]; 10 mg/kg/day intraperitoneal) is reported as 25 ± 5%.
In the case of `CN(C)CCCN1c2ccccc2CCc2ccccc21` [Imipramine], the “Ach-induced contraction” value ([1]; 5 mg/kg/day intraperitoneal) is reported as 44 ± 15% and the “Ach-induced contraction” value ([1]; 10 mg/kg/day intraperitoneal) is reported as 100 ± 4%.
With `CCCC(C)(COC(N)=O)COC(N)=O` [Meprobamate] the “Ach-induced contraction” value ([1]; 5 mg/kg/day intraperitoneal) was 31 ± 2%.
For `COC(=O)[C@H]1[C@H]2C[C@@H]3c4[nH]c5cc(OC)ccc5c4CCN3C[C@H]2C[C@@H](OC(=O)c2cc(OC)c(OC)c(OC)c2)[C@@H]1OC` [Reserpine], the “Ach-induced contraction” value ([1]; 0.1 mg/kg/day intraperitoneal) was 75 ± 10% and the “Ach-induced contraction” value ([1]; 0.5 mg/kg/day intraperitoneal) was 104 ± 15%.
